Patent US9499554B2, “Anti-influenza compositions and methods” (priority 2013, dated 2016)
≈ marks a conversion by molar mass, not a printed value. Where two headings read alike, the source gives them in different places. Marks after values point to notes of the source that are not given here.

Experiments:
influenza viruses [1] = assay: organism not typed; assay type: cell-based; settings: read-out: EC50 values against the influenza viruses as measured by NR assay
influenza viruses [2] = assay: organism not typed; assay type: cell-based; settings: read-out: EC50 values against the influenza viruses by visual assay
Influenza B Florida [3] = assay: microbe, parasite or virus in culture; assay type: cell-based
Influenza B Florida [4] = assay: microbe, parasite or virus in culture; assay type: cell-based; settings: for EC50: Influenza B virus
[5] = tested on: influenza virus H3N2 (A/Victoria/3/75); assay: microbe, parasite or virus in culture; assay type: cell-based; settings: H3N2, MDCK; 72 hrs; read-out: Percent Inhibition of Cytopathic Effect
MDCK cells [6] = settings: dog
A/CA/27/2007 (H1N1) = assay: microbe, parasite or virus in culture; assay type: cell-based; settings: Influenza A virus, H1N1, MDCK, read-out: EC50, antiviral activity in MDCK cells
MA-104 cells [7] = settings: African green monkey
[8] = tested on: Influenza A H5N1 VN/1203/2004 Hybrid (on H1N1 backbone); assay: microbe, parasite or virus in culture; assay type: cell-based
[9] = tested on: Parainfluenza 3 14702 (MA-104 cells); assay: organism not typed; assay type: cell-based
A/Vic/3/75 (H3N2) = assay: microbe, parasite or virus in culture; assay type: cell-based; settings: Influenza A virus, H3N2, MDCK, read-out: EC50, antiviral activity in MDCK cells
in vivo = settings: female, Balb/c, mouse, po, 100 mg/kg
[10] = tested on: H3N2 virus (A/Victoria/3/75); design: species or system Balb/C mice; settings: mouse, in vivo
MA-104 cells [11] = settings: African green monkey; remark: listed apart in the source
[12] = tested on: Influenza A H3N2 Brisbane/10/2007; assay: microbe, parasite or virus in culture; assay type: cell-based
[13] = tested on: Influenza A H3N2 Brisbane/10/2007; assay: microbe, parasite or virus in culture; assay type: cell-based; settings: for EC50: Influenza A virus
[14] = tested on: H3N2 virus (A/Victoria/3/75); design: species or system Balb/C mice; settings: mouse, in vivo, po
[15] = tested on: Influenza A H5N1 VN/1203/2004 Hybrid (on H1N1 backbone); assay: microbe, parasite or virus in culture; assay type: cell-based; remark: listed apart in the source
[16] = tested on: Influenza A H1N1 CA/04/2009 (Pandemic H1N1); assay: microbe, parasite or virus in culture; assay type: cell-based; settings: for EC50: Influenza A virus
MDCK cells [17] = settings: dog; remark: listed apart in the source
[18] = tested on: Influenza A H1N1 CA/04/2009 (Pandemic H1N1); assay: microbe, parasite or virus in culture; assay type: cell-based
[19] = tested on: Parainfluenza 3 14702 (MA-104 cells); assay: organism not typed; assay type: cell-based; remark: listed apart in the source

**Q.** For Nc1ncnc2c([C@@H]3N[C@H](CO)[C@@H](O)[C@H]3O)c[nH]c12 [compound 1, (2S,3S,4R,5R)-2-(4-Amino-5H-pyrrolo[3,2-d]pyrimidin-7-yl)-5-(hydroxymethyl)pyrrolidine-3,4-diol], which EC50 (influenza viruses [1]) is on record?
**A.** 1.8 to 5.6 µg/mL (≈ 6.79 to 21.1 µM)

**Q.** What about the EC50 (influenza viruses [2]) of the same molecule?
**A.** 0.63 to 1.8 µg/mL (≈ 2.37 to 6.79 µM)

**Q.** What about the “SI, Visual CPE Assay” value (Influenza B Florida [3]) of the same molecule?
**A.** 290

**Q.** What about the EC50 (Influenza B Florida [3]; Influenza B virus, Influenza B Florida, read-out: EC50, Visual CPE Assay) of the same molecule?
**A.** 1.8 µg/mL (≈ 6.79 µM)

**Q.** What about the “SI, Neutral Red Uptake Assay” value (Influenza B Florida [4]) of the same molecule?
**A.** 38

**Q.** And the EC50 (Influenza B Florida [4]; B/Florida, MDCK cells, Table 2, read-out: EC50, antiviral activity in MDCK cells)?
**A.** 1.8 µg/mL (≈ 6.79 µM)

**Q.** What about the EC50 (Influenza B Florida [4]; Influenza B Florida, read-out: EC50, Neutral Red Uptake Assay) of the same molecule?
**A.** 1.8 µg/mL (≈ 6.79 µM)

**Q.** And the inhibition at 1.8 µM [5]?
**A.** 1.6 ± 6.1%

**Q.** And the inhibition at 7.8 µM [5]?
**A.** 25.8 ± 4.8%

**Q.** And the “IC50 (50% cytotoxic dose), Visual CPE Assay” value (MDCK cells [6])?
**A.** >1000 µg/mL

**Q.** And the EC50 (A/CA/27/2007 (H1N1))?
**A.** 0.66 µg/mL (≈ 2.49 µM)

**Q.** What about the “IC50 (50% cytotoxic dose), Visual CPE Assay” value (MA-104 cells [7]) of the same molecule?
**A.** 100 µg/mL (≈ 377 µM)

**Q.** What about the “SI, Neutral Red Uptake Assay” value [8] of the same molecule?
**A.** 130

**Q.** And the “SI, Neutral Red Uptake Assay” value [9]?
**A.** 52

**Q.** And the EC50 ([9]; MA104, read-out: EC50, Neutral Red Uptake Assay)?
**A.** 10 µg/mL (≈ 37.7 µM)

**Q.** What about the EC50 (A/Vic/3/75 (H3N2)) of the same molecule?
**A.** 4 µg/mL (≈ 15.1 µM)

**Q.** What about the concentration at 0.17 hr (in vivo) of the same molecule?
**A.** 607 ± 61 ng/mL

**Q.** And the concentration at 0.5 hr (in vivo)?
**A.** 910 ± 122 ng/mL

**Q.** What about the concentration at 1 hr (in vivo) of the same molecule?
**A.** 342 ± 122 ng/mL

**Q.** And the concentration at 3 hr (in vivo)?
**A.** 89.7 ± 8.5 ng/mL

**Q.** And the concentration at 5 hr (in vivo)?
**A.** 94.2 ± 6.4 ng/mL

**Q.** And the concentration at 24 hr (in vivo)?
**A.** 50.5 ± 8.9 ng/mL

**Q.** What about the “Mean day to death (Mean ± SEM)” value [10] of the same molecule?
**A.** >16 days

**Q.** What about the Survival/Total [10] of the same molecule?
**A.** 10/10*

**Q.** And the “effect on survival and weight loss in infected mice” value [10]?
**A.** improves the survival and weight loss

**Q.** What about the “IC50 (50% cytotoxic dose), Neutral Red Uptake Assay” value (MA-104 cells [11]) of the same molecule?
**A.** 52 µg/mL (≈ 196 µM)

**Q.** And the “SI, Visual CPE Assay” value [12]?
**A.** 140

**Q.** And the EC50 ([12]; Influenza A virus, H3N2, read-out: EC50, Visual CPE Assay)?
**A.** 1.8 µg/mL (≈ 6.79 µM)

**Q.** And the “SI, Neutral Red Uptake Assay” value [13]?
**A.** 79

**Q.** What about the EC50 ([13]; H3N2, MDCK, read-out: EC50, antiviral activity in MDCK cells) of the same molecule?
**A.** 5.6 µg/mL (≈ 21.1 µM)

**Q.** And the EC50 ([13]; H3N2, read-out: EC50, Neutral Red Uptake Assay)?
**A.** 5.6 µg/mL (≈ 21.1 µM)

**Q.** And the “effect on survival and weight loss in infected mice” value [14]?
**A.** improves the survival and weight loss

**Q.** And the “Mean day to death (Mean ± SEM)” value ([14]; 30 mg/kg/day)?
**A.** >16 days

**Q.** What about the “Mean weight change (grams ± SEM) Day 9” value ([14]; 30 mg/kg/day) of the same molecule?
**A.** −1.58 ± 0.32 grams

**Q.** What about the Survival/Total ([14]; 30 mg/kg/day) of the same molecule?
**A.** 10/10*

**Q.** And the “Mean day to death (Mean ± SEM)” value ([14]; 100 mg/kg/day)?
**A.** >16 days

**Q.** What about the Survival/Total ([14]; 100 mg/kg/day) of the same molecule?
**A.** 10/10*

**Q.** What about the “Mean day to death (Mean ± SEM)” value ([14]; 300 mg/kg/day) of the same molecule?
**A.** >16 days

**Q.** And the “Mean weight change (grams ± SEM) Day 9” value ([14]; 300 mg/kg/day)?
**A.** 0.66 ± 0.23 grams

**Q.** What about the Survival/Total ([14]; 300 mg/kg/day) of the same molecule?
**A.** 10/10*

**Q.** And the “SI, Visual CPE Assay” value [15]?
**A.** >1600

**Q.** What about the “SI, Neutral Red Uptake Assay” value [16] of the same molecule?
**A.** 120

**Q.** What about the EC50 ([16]; H1N1, MDCK, read-out: EC50, antiviral activity in MDCK cells) of the same molecule?
**A.** 1.8 µg/mL (≈ 6.79 µM)

**Q.** What about the EC50 ([16]; H1N1, read-out: EC50, Neutral Red Uptake Assay) of the same molecule?
**A.** 1.8 µg/mL (≈ 6.79 µM)

**Q.** And the “IC50 (50% cytotoxic dose), Neutral Red Uptake Assay” value (MDCK cells [17])?
**A.** 130 µg/mL (≈ 490 µM)

**Q.** And the “SI, Visual CPE Assay” value [18]?
**A.** 120

**Q.** And the EC50 ([18]; Influenza A virus, H1N1, read-out: EC50, Visual CPE Assay)?
**A.** 1.8 µg/mL (≈ 6.79 µM)

**Q.** What about the “SI, Visual CPE Assay” value [19] of the same molecule?
**A.** 7.1

**Q.** And the EC50 ([19]; MA104, read-out: EC50, Visual CPE Assay)?
**A.** 14 µg/mL (≈ 52.8 µM)
